Measurements taken from PubChem BioAssay (NCI).
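Dose response: 5 concentrations. Exposure: 48 h. Format: 96-well plates. Endpoint: linear interpolation; highest concentration if not reached. GI50: concentration for 50% inhibition of growth. Definition used: TGI = concentration required for complete inhibition of growth.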

Key:
Assay in all cases: NCI anticancer screen, dose series, 48 h
[1] = system: 786-0 renal
[2] = system: A498 renal
[3] = system: A549 NSCLC
[4] = system: ACHN renal
[5] = system: BT-549 breast
[6] = system: CAKI-1 renal
[7] = system: CCRF-CEM leukemia
[8] = system: COLO 205 colon
[9] = system: DU-145 prostate
[10] = system: HCC-2998 colon
[11] = system: HCT-116 colon
[12] = system: HCT-15 colon
[13] = system: HL-60(TB) leukemia
[14] = system: HOP-62 NSCLC
[15] = system: HOP-92 NSCLC
[16] = system: HS 578T breast
[17] = system: HT29 colon
[18] = system: IGROV1 ovarian
[19] = system: K-562 leukemia
[20] = system: KM12 colon
[21] = system: LOX IMVI melanoma
[22] = system: M14 melanoma
[23] = system: MALME-3M melanoma
[24] = system: MCF7 breast
[25] = system: MDA-MB-231 breast
[26] = system: MDA-MB-435
[27] = system: MOLT-4 leukemia
[28] = system: NCI-H226 lung
[29] = system: NCI-H23 lung
[30] = system: NCI-H460 lung
[31] = system: NCI-H522 lung
[32] = system: NCI/ADR-RES ovarian
[33] = system: OVCAR-3 ovarian
[34] = system: OVCAR-4 ovarian
[35] = system: OVCAR-5 ovarian
[36] = system: OVCAR-8 ovarian
[37] = system: PC-3 prostate
[38] = system: RPMI-8226 leukemia
[39] = system: RXF 393 renal
[40] = system: SF-268 CNS
[41] = system: SF-295 CNS
[42] = system: SF-539 CNS
[43] = system: SK-MEL-2 melanoma
[44] = system: SK-MEL-28 melanoma
[45] = system: SK-MEL-5 melanoma
[46] = system: SK-OV-3 ovarian
[47] = system: SN12C renal
[48] = system: SNB-19 CNS
[49] = system: SNB-75 CNS
[50] = system: SR leukemia
[51] = system: SW-620 colon
[52] = system: T-47D breast
[53] = system: TK-10 renal
[54] = system: U251 CNS
[55] = system: UACC-257 melanoma
[56] = system: UACC-62 melanoma
[57] = system: UO-31 renal

COc1ccccc1CNCCCN1C(=O)c2ccc3c4c(ccc(c24)C1=O)C(=O)N(CCCN)C3=O
GI50 [1]: 1.47 µM
TGI [1]: 4.89 µM
GI50 [2]: 1.57 µM
TGI [2]: 3.04 µM
GI50 [3]: 1.87 µM
TGI [3]: 4.11 µM
GI50 [4]: 1.58 µM
TGI [4]: 4.51 µM
GI50 [5]: 1.58 µM
TGI [5]: 2.99 µM
GI50 [6]: 1.76 µM
TGI [6]: 4.73 µM
GI50 [7]: 0.441 µM
TGI [7]: 2.76 µM
GI50 [8]: 0.814 µM
TGI [8]: 2.12 µM
GI50 [9]: 1.38 µM
TGI [9]: 2.71 µM
GI50 [10]: 1.8 µM
TGI [10]: 3.58 µM
GI50 [11]: 0.349 µM
TGI [11]: 1.23 µM
GI50 [12]: 1.41 µM
TGI [12]: 3.67 µM
GI50 [13]: 0.826 µM
TGI [13]: 2.54 µM
GI50 [14]: 1.42 µM
TGI [14]: 2.95 µM
GI50 [15]: 2.4 µM
TGI [15]: 5.65 µM
GI50 [16]: 1.96 µM
TGI [16]: 6.95 µM
GI50 [17]: 1.42 µM
TGI [17]: 3.75 µM
GI50 [18]: 1.35 µM
TGI [18]: 3.48 µM
GI50 [19]: 0.751 µM
TGI [19]: 3.35 µM
GI50 [20]: 1.69 µM
TGI [20]: 3.25 µM
GI50 [21]: 0.685 µM
TGI [21]: 2.87 µM
GI50 [22]: 0.833 µM
TGI [22]: 2.34 µM
GI50 [23]: 0.36 µM
TGI [23]: 1.07 µM
GI50 [24]: 0.329 µM
TGI [24]: 1.6 µM
GI50 [25]: 1.67 µM
TGI [25]: 10.9 µM
GI50 [26]: 0.196 µM
TGI [26]: 0.413 µM
GI50 [27]: 0.446 µM
TGI [27]: 2.24 µM
GI50 [28]: 1.85 µM
TGI [28]: 3.92 µM
GI50 [29]: 0.94 µM
TGI [29]: 3.74 µM
GI50 [30]: 0.553 µM
TGI [30]: 2.16 µM
GI50 [31]: 1.51 µM
TGI [31]: 2.97 µM
GI50 [32]: 2.86 µM
TGI [32]: 9.6 µM
GI50 [33]: 0.329 µM
TGI [33]: 1.06 µM
GI50 [34]: 0.23 µM
TGI [34]: 0.843 µM
GI50 [35]: 1.6 µM
TGI [35]: 3.56 µM
GI50 [36]: 0.49 µM
TGI [36]: 3.81 µM
GI50 [37]: 1.68 µM
TGI [37]: 4.95 µM
GI50 [38]: 1.36 µM
TGI [38]: 4.52 µM
GI50 [39]: 0.628 µM
TGI [39]: 1.83 µM
GI50 [40]: 1.22 µM
TGI [40]: 3.94 µM
GI50 [41]: 1.31 µM
TGI [41]: 2.81 µM
GI50 [42]: 1.21 µM
TGI [42]: 2.5 µM
GI50 [43]: 1.46 µM
TGI [43]: 3.31 µM
GI50 [44]: 1.74 µM
TGI [44]: 3.75 µM
GI50 [45]: 0.262 µM
TGI [45]: 0.899 µM
GI50 [46]: 2.53 µM
TGI [46]: 7.18 µM
GI50 [47]: 1.29 µM
TGI [47]: 2.76 µM
GI50 [48]: 1.58 µM
TGI [48]: 3.37 µM
GI50 [49]: 1.36 µM
TGI [49]: 2.72 µM
GI50 [50]: 0.243 µM
TGI [50]: 1.36 µM
GI50 [51]: 0.589 µM
TGI [51]: 2.33 µM
GI50 [52]: 1.22 µM
TGI [52]: 3.31 µM
GI50 [53]: 2.28 µM
TGI [53]: 7.89 µM
GI50 [54]: 1.77 µM
TGI [54]: 3.99 µM
GI50 [55]: 0.74 µM
TGI [55]: 2.27 µM
GI50 [56]: 0.422 µM
TGI [56]: 1.56 µM
GI50 [57]: 1.96 µM
TGI [57]: 5.35 µM
